The values below come from the supplement of paper PMC10307832.

Assay in all cases: relative viability (nuclei count vs DMSO), 5 days (fraction); higher = more cells survive
Compound in assay [1]: CCOC1=CC=CC=C1N=NC2=C(NN(C2=O)C3=NC(=CS3)C4=CC=CC=C4)C [BAM7] + Cc1nc(Nc2ncc(C(=O)Nc3c(C)cccc3Cl)s2)cc(N2CCN(CCO)CC2)n1 [Dasatinib] (partner 0.075 µM)
The method in brief: (§1)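 Relative viability divides the nuclei count in treated wells by that in vehicle wells. Lung cancer cell lines were seeded in 1536-well plates, dosed by pin tool the next day, and fixed and stained after 5 days in one step with final 0.05% Triton X-100, 1% formaldehyde and 1 ug/ml Hoechst. Dosing was a single drug or a fixed anchor-drug dose plus five library-drug doses (not always all listed) in √10 steps, and values are medians of duplicate plates imaged at 4×.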

Compound in assay [2]: CCOC1=CC=CC=C1N=NC2=C(NN(C2=O)C3=NC(=CS3)C4=CC=CC=C4)C [BAM7] + Nc1nc2[nH]cc(CCc3ccc(C(=O)N[C@@H](CCC(=O)O)C(=O)O)cc3)c2c(=O)[nH]1 [Pemetrexed] (partner 0.2 µM)
In short, it runs like this:
as §1

Compound in assay [3]: CCOC1=CC=CC=C1N=NC2=C(NN(C2=O)C3=NC(=CS3)C4=CC=CC=C4)C [BAM7] + C[C@]1(O)C[C@@H](c2nc(-c3ccc4ccc(-c5ccccc5)nc4c3)c3c(N)nccn32)C1 [Linsitinib] (partner 1 µM)
In short, it runs like this: as §1

Compound in assay [4]: CCn1c(-c2nonc2N)nc2c(C#CC(C)(C)O)ncc(OC[C@H]3CCCNC3)c21 + CS(=O)(=O)CCNCc1ccc(-c2ccc3ncnc(Nc4ccc(OCc5cccc(F)c5)c(Cl)c4)c3c2)o1 [Lapatinib] (partner 2 µM)
In short, it runs like this: as §1

Regarding NCI-H2342, the relative viability worked out at 0.286 in assay [1] (first compound 0.5 µM); 0.343 in assay [1] (first compound 5 µM); 0.352 in assay [1] (first compound 15.81 µM); 0.316 in assay [1] (first compound 50 µM); 0.677 in assay [2] (first compound 0.5 µM); 0.712 in assay [2] (first compound 5 µM). In addition, the results for the relative viability in assay [2] (first compound 15.81 µM) and in assay [2] (first compound 50 µM) were 0.734 and 0.72, respectively.

With SK-MES-1, the relative viability in assay [3] (first compound 0.5 µM) worked out at 1.11; in assay [3] (first compound 5 µM), 1.05; in assay [3] (first compound 15.81 µM), 1.03; in assay [3] (first compound 50 µM), 1.07; in assay [1] (first compound 0.5 µM) it was 0.366; in assay [1] (first compound 5 µM), 0.289. Moreover, the relative viability in assay [1] (first compound 15.81 µM) stood at 0.3; in assay [1] (first compound 50 µM), 0.336; in assay [2] (first compound 0.5 µM), 0.919; in assay [2] (first compound 5 µM) it was 0.906; in assay [2] (first compound 15.81 µM), 0.814; in assay [2] (first compound 50 µM) it was 0.866. Also, the relative viability came out at 0.46 in assay [4] (first compound 0.01 µM); 0.425 in assay [4] (first compound 0.03162 µM); 0.507 in assay [4] (first compound 0.1 µM); 0.424 in assay [4] (first compound 0.3162 µM); 0.406 in assay [4] (first compound 1 µM).

With HCC-366, the relative viability in assay [3] (first compound 0.5 µM) stood at 0.67; in assay [3] (first compound 5 µM), 0.501; in assay [3] (first compound 15.81 µM), 0.583; in assay [3] (first compound 50 µM), 0.677; in assay [1] (first compound 0.5 µM) it was 0.67; in assay [1] (first compound 5 µM) it was 0.675. The relative viability in assay [1] (first compound 15.81 µM) stood at 0.708; in assay [1] (first compound 50 µM), 0.717; in assay [2] (first compound 0.5 µM), 0.107; in assay [2] (first compound 5 µM), 0.117; in assay [2] (first compound 15.81 µM) it was 0.125; in assay [2] (first compound 50 µM), 0.115. Further, the relative viability in assay [4] (first compound 0.01 µM) was determined as 0.967; in assay [4] (first compound 0.03162 µM), 1.02; in assay [4] (first compound 0.1 µM), 0.953; in assay [4] (first compound 0.3162 µM) it was 1.03; in assay [4] (first compound 1 µM), 1.09.

For the cell line 201T, the relative viability in assay [3] (first compound 0.5 µM) came out at 1.04; in assay [3] (first compound 5 µM), 1.09; in assay [3] (first compound 15.81 µM), 0.963; in assay [3] (first compound 50 µM) it was 1.03; in assay [1] (first compound 0.5 µM) it was 0.659; in assay [1] (first compound 5 µM), 0.56. The relative viability was 0.461 in assay [1] (first compound 15.81 µM); 0.497 in assay [1] (first compound 50 µM); 0.299 in assay [2] (first compound 0.5 µM); 0.324 in assay [2] (first compound 5 µM); 0.327 in assay [2] (first compound 15.81 µM); 0.313 in assay [2] (first compound 50 µM). In addition, the relative viability in assay [4] (first compound 0.01 µM) is 0.991; in assay [4] (first compound 0.03162 µM) it was 1.06; in assay [4] (first compound 0.1 µM) it was 1.05; in assay [4] (first compound 0.3162 µM), 1.05; in assay [4] (first compound 1 µM) it was 1.01.

In the case of HCC-827, the relative viability amounted to 0.957 in assay [3] (first compound 0.5 µM); 0.912 in assay [3] (first compound 5 µM); 0.905 in assay [3] (first compound 15.81 µM); 0.881 in assay [3] (first compound 50 µM); 0.29 in assay [1] (first compound 0.5 µM); 0.234 in assay [1] (first compound 5 µM). In addition, the relative viability came out at 0.313 in assay [1] (first compound 15.81 µM); 0.264 in assay [1] (first compound 50 µM); 0.27 in assay [2] (first compound 0.5 µM); 0.25 in assay [2] (first compound 5 µM); 0.28 in assay [2] (first compound 15.81 µM); 0.247 in assay [2] (first compound 50 µM). In addition, the relative viability in assay [4] (first compound 0.01 µM) came to 0.175; in assay [4] (first compound 0.03162 µM) it was 0.219; in assay [4] (first compound 0.1 µM), 0.191; in assay [4] (first compound 0.3162 µM), 0.173; in assay [4] (first compound 1 µM), 0.217.

In the case of NCI-H647, the relative viability in assay [3] (first compound 0.5 µM) was found to be 1.27; in assay [3] (first compound 5 µM), 1.32; in assay [3] (first compound 15.81 µM) it was 1.13; in assay [3] (first compound 50 µM), 1.12; in assay [1] (first compound 0.5 µM), 0.175; in assay [1] (first compound 5 µM), 0.193. Besides, the relative viability came out at 0.203 in assay [1] (first compound 15.81 µM); 0.248 in assay [1] (first compound 50 µM); 0.168 in assay [2] (first compound 0.5 µM); 0.2 in assay [2] (first compound 5 µM); 0.188 in assay [2] (first compound 15.81 µM); 0.17 in assay [2] (first compound 50 µM). In addition, the relative viability was 0.874 in assay [4] (first compound 0.01 µM); 1.23 in assay [4] (first compound 0.03162 µM); 1.08 in assay [4] (first compound 0.1 µM); 0.788 in assay [4] (first compound 0.3162 µM); 0.981 in assay [4] (first compound 1 µM).

As for NCI-H2023, the relative viability was 0.657 in assay [3] (first compound 0.5 µM); 0.689 in assay [3] (first compound 5 µM); 0.64 in assay [3] (first compound 15.81 µM); 0.67 in assay [3] (first compound 50 µM); 0.519 in assay [1] (first compound 0.5 µM); 0.465 in assay [1] (first compound 5 µM). Further, the relative viability was 0.393 in assay [1] (first compound 15.81 µM); 0.481 in assay [1] (first compound 50 µM); 0.229 in assay [2] (first compound 0.5 µM); 0.248 in assay [2] (first compound 5 µM); 0.174 in assay [2] (first compound 15.81 µM); 0.286 in assay [2] (first compound 50 µM). Besides, the relative viability was determined as 0.74 in assay [4] (first compound 0.01 µM); 0.792 in assay [4] (first compound 0.03162 µM); 0.769 in assay [4] (first compound 0.1 µM); 0.689 in assay [4] (first compound 0.3162 µM); 0.953 in assay [4] (first compound 1 µM).

Turning to NCI-H441, the relative viability in assay [3] (first compound 0.5 µM) was 0.547; in assay [3] (first compound 5 µM), 0.597; in assay [3] (first compound 15.81 µM), 0.648; in assay [3] (first compound 50 µM) it was 0.399; in assay [1] (first compound 0.5 µM), 0.607; in assay [1] (first compound 5 µM) it was 0.583. For the same cell line, the relative viability in assay [1] (first compound 15.81 µM) was 0.71; in assay [1] (first compound 50 µM), 0.724; in assay [2] (first compound 0.5 µM), 0.299; in assay [2] (first compound 5 µM), 0.252; in assay [2] (first compound 15.81 µM), 0.277; in assay [2] (first compound 50 µM) it was 0.242.

On to NCI-H1703, for which the relative viability in assay [3] (first compound 0.5 µM) was found to be 0.791; in assay [3] (first compound 5 µM), 0.856; in assay [3] (first compound 15.81 µM) it was 0.75; in assay [3] (first compound 50 µM), 0.791; in assay [4] (first compound 0.01 µM) it was 0.998; in assay [4] (first compound 0.03162 µM), 1.23. For the same cell line, the relative viability was found to be 1.05 in assay [4] (first compound 0.1 µM), 0.739 in assay [4] (first compound 0.3162 µM) and 0.662 in assay [4] (first compound 1 µM).

Calu-6: the relative viability in assay [3] (first compound 0.5 µM) is 1.1; in assay [3] (first compound 5 µM), 1.11; in assay [3] (first compound 15.81 µM) it was 0.913; in assay [3] (first compound 50 µM), 1.02; in assay [4] (first compound 0.01 µM), 1.06; in assay [4] (first compound 0.03162 µM) it was 1.14. Also, the relative viability in assay [4] (first compound 0.1 µM) came to 1.11; in assay [4] (first compound 0.3162 µM), 1.04; in assay [4] (first compound 1 µM) it was 1.07.
